Source: ChEMBL document CHEMBL1201862, “PubChem BioAssay data set” (2004)
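Growth conditions: 96-well plates. Treatment: test compound, 48 hours, 5 concentrations. Analysis: linear interpolation between bracketing concentrations; unreached endpoints set to highest concentration. Here, GI50 denotes the concentration required for 50% inhibition of growth.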 The source made the active and inactive calls. No stated cut-off is given here; in the data, active = GI50 up to about 1.1 µM and inactive = higher.

What was measured:
Experiment in all cases: growth of human tumour cells (NCI), 48 h
[1] = test system: 786-0
[2] = test system: A549
[3] = test system: COLO 205
[4] = test system: HCC 2998
[5] = test system: HCT-116
[6] = test system: K562
[7] = test system: KM12
[8] = test system: NCI-H460
[9] = test system: OVCAR-4
[10] = test system: SK-MEL-28
[11] = test system: SK-OV-3
[12] = test system: SN12C
[13] = test system: SNB-19
[14] = test system: TK-10
[15] = test system: U-251
[16] = test system: UO-31
[17] = test system: LOX IMVI

| SMILES | GI50 [1] | GI50 [2] | GI50 [3] | GI50 [4] | GI50 [5] | GI50 [6] | GI50 [7] | GI50 [8] | GI50 [9] | GI50 [10] | GI50 [11] | GI50 [12] | GI50 [13] | GI50 [14] | GI50 [15] | GI50 [16] | GI50 [17] |
| --- | --- | --- | --- | --- | --- | --- | --- | --- | --- | --- | --- | --- | --- | --- | --- | --- | --- |
| Cc1ccc(S(=O)(=O)NC2(C=O)CCCC3CCCCC32)cc1 (configuration not stated) | > 100 µM (inactive) | > 100 µM (inactive) | > 100 µM (inactive) | > 100 µM (inactive) | > 100 µM (inactive) | > 100 µM (inactive) | > 100 µM (inactive) | > 100 µM (inactive) | > 100 µM (inactive) | > 100 µM (inactive) | > 100 µM (inactive) | > 100 µM (inactive) | > 100 µM (inactive) | > 100 µM (inactive) | > 100 µM (inactive) | > 100 µM (inactive) | – |
| CC1=C(C(=O)Nc2cccc(C(F)(F)F)c2)C(c2ccc(O)cc2)C(C(=O)Nc2cccc(C(F)(F)F)c2)=C(C)N1 | 16.7 µM (inactive) | 24.4 µM (inactive) | 13.9 µM (inactive) | 17.3 µM (inactive) | 14.6 µM (inactive) | 15 µM (inactive) | 15.8 µM (inactive) | 16.7 µM (inactive) | 14.8 µM (inactive) | 18.7 µM (inactive) | 19.1 µM (inactive) | > 10 µM (inactive) | 32.2 µM (inactive) | 26.1 µM (inactive) | 17.1 µM (inactive) | 12.7 µM (inactive) | 15.6 µM (inactive) |
| Cc1ccccc1-c1c(N)nc(NC#N)nc1C(=O)Nc1ccccc1 | > 100 µM (inactive) | > 100 µM (inactive) | > 100 µM (inactive) | > 100 µM (inactive) | > 100 µM (inactive) | > 100 µM (inactive) | > 100 µM (inactive) | > 100 µM (inactive) | > 100 µM (inactive) | > 100 µM (inactive) | > 100 µM (inactive) | 99.8 µM (inactive) | > 100 µM (inactive) | > 100 µM (inactive) | > 100 µM (inactive) | > 100 µM (inactive) | > 100 µM (inactive) |
| CC1OC(=O)C(O)=C1O (configuration not stated) | > 100 µM (inactive) | > 100 µM (inactive) | > 100 µM (inactive) | > 100 µM (inactive) | > 100 µM (inactive) | > 100 µM (inactive) | > 100 µM (inactive) | > 100 µM (inactive) | > 100 µM (inactive) | – | > 100 µM (inactive) | > 100 µM (inactive) | > 100 µM (inactive) | > 100 µM (inactive) | > 100 µM (inactive) | > 100 µM (inactive) | > 100 µM (inactive) |
| CCOC(=O)/C(=C/c1ccc(N(C)C)cc1)N(CC)CC | > 100 µM (inactive) | 48.1 µM (inactive) | > 100 µM (inactive) | > 100 µM (inactive) | 48.1 µM (inactive) | 22.5 µM (inactive) | 79.8 µM (inactive) | – | 73.1 µM (inactive) | > 100 µM (inactive) | > 100 µM (inactive) | 84.7 µM (inactive) | > 100 µM (inactive) | > 100 µM (inactive) | > 100 µM (inactive) | 68.5 µM (inactive) | 27.7 µM (inactive) |
| COC(=O)c1ccc(/C=C/S(=O)(=O)c2ccccc2)cc1 | > 100 µM (inactive) | > 100 µM (inactive) | > 100 µM (inactive) | – | > 100 µM (inactive) | > 100 µM (inactive) | > 100 µM (inactive) | > 100 µM (inactive) | > 100 µM (inactive) | 44.9 µM (inactive) | > 100 µM (inactive) | > 100 µM (inactive) | > 100 µM (inactive) | > 100 µM (inactive) | > 100 µM (inactive) | > 100 µM (inactive) | > 100 µM (inactive) |
| Cc1ccc(C2[C@H]3C(=O)N(c4ccc(Cc5ccc(N6C(=O)[C@@H]7ON(c8ccccc8)C(c8ccc(C)cc8)[C@@H]7C6=O)cc5)cc4)C(=O)[C@H]3ON2c2ccccc2)cc1 (some centres not stated) | > 100 µM (inactive) | > 100 µM (inactive) | > 100 µM (inactive) | > 100 µM (inactive) | – | > 100 µM (inactive) | > 100 µM (inactive) | > 100 µM (inactive) | > 100 µM (inactive) | > 100 µM (inactive) | > 100 µM (inactive) | > 100 µM (inactive) | – | – | > 100 µM (inactive) | > 100 µM (inactive) | > 100 µM (inactive) |
| O=C1NC(=O)C(C(=O)C(=O)Nc2cc(Cl)ccc2Cl)C(=O)N1 | > 100 µM (inactive) | > 100 µM (inactive) | > 100 µM (inactive) | > 100 µM (inactive) | > 100 µM (inactive) | > 100 µM (inactive) | > 100 µM (inactive) | > 100 µM (inactive) | > 100 µM (inactive) | > 100 µM (inactive) | > 100 µM (inactive) | – | > 100 µM (inactive) | > 100 µM (inactive) | > 100 µM (inactive) | > 100 µM (inactive) | – |
| COC(=O)C1=C(C)N(NC(=O)Nc2ccccc2)C2(N)N(NC(=O)Nc3ccccc3)C(C)=C(C(=O)OC)C12C(=O)OC (configuration not stated) | 66.7 µM (inactive) | > 100 µM (inactive) | 34.7 µM (inactive) | 39.4 µM (inactive) | > 100 µM (inactive) | 51.9 µM (inactive) | – | 38.3 µM (inactive) | 64.9 µM (inactive) | > 100 µM (inactive) | > 100 µM (inactive) | 63.2 µM (inactive) | – | 69.3 µM (inactive) | 43.3 µM (inactive) | > 100 µM (inactive) | 72.6 µM (inactive) |
| O=C(Nc1ccccc1SC(/C=C/NNC1=NN=C(c2ccccc2)C(c2ccccc2)N1)c1ccccc1)c1ccc(Cl)cc1Cl (configuration not stated) | 37.9 µM (inactive) | 38.9 µM (inactive) | > 100 µM (inactive) | 47 µM (inactive) | – | 60.1 µM (inactive) | 38.1 µM (inactive) | 42.7 µM (inactive) | 35.9 µM (inactive) | 38.8 µM (inactive) | 49.3 µM (inactive) | 32.6 µM (inactive) | 80 µM (inactive) | > 100 µM (inactive) | 25.6 µM (inactive) | 34 µM (inactive) | 36.2 µM (inactive) |
| CC(=O)O[C@]12CCCCC1C1(O)C(O)CCCC[C@H]12 (some centres not stated) | > 100 µM (inactive) | > 100 µM (inactive) | > 100 µM (inactive) | – | > 100 µM (inactive) | > 100 µM (inactive) | > 100 µM (inactive) | > 100 µM (inactive) | > 100 µM (inactive) | > 100 µM (inactive) | > 100 µM (inactive) | > 100 µM (inactive) | > 100 µM (inactive) | > 100 µM (inactive) | > 100 µM (inactive) | > 100 µM (inactive) | > 100 µM (inactive) |
| O=C(Nc1nc2ncn(CCO)c2c(=O)[nH]1)c1ccccc1 | > 100 µM (inactive) | > 100 µM (inactive) | > 100 µM (inactive) | – | > 100 µM (inactive) | > 100 µM (inactive) | > 100 µM (inactive) | > 100 µM (inactive) | > 100 µM (inactive) | > 100 µM (inactive) | > 100 µM (inactive) | > 100 µM (inactive) | > 100 µM (inactive) | > 100 µM (inactive) | > 100 µM (inactive) | > 100 µM (inactive) | > 100 µM (inactive) |
| CCc1c(-c2coc(CC/C(C)=C/c3ccccc3)n2)oc(OC)c(C)c1=O | 18.1 µM (inactive) | – | 21.5 µM (inactive) | 78.7 µM (inactive) | 19 µM (inactive) | 0.122 µM (active) | 78.9 µM (inactive) | 18.7 µM (inactive) | > 39 µM (inactive) | > 100 µM (inactive) | 32.7 µM (inactive) | > 42.1 µM (inactive) | 23.1 µM (inactive) | > 100 µM (inactive) | 29 µM (inactive) | 5.35 µM (inactive) | 15.1 µM (inactive) |
| CCC1(CN(C)C)CC/C(=C\c2ccc3c(c2)OCO3)C1=O (configuration not stated) | > 100 µM (inactive) | > 100 µM (inactive) | > 100 µM (inactive) | > 100 µM (inactive) | > 100 µM (inactive) | 65.9 µM (inactive) | > 100 µM (inactive) | – | > 100 µM (inactive) | > 100 µM (inactive) | – | > 100 µM (inactive) | > 100 µM (inactive) | > 100 µM (inactive) | > 100 µM (inactive) | 91.8 µM (inactive) | > 100 µM (inactive) |
| Cc1cc(NS(=O)(=O)c2ccc(Nc3c4ccccc4nc4c(C(=O)NCCN(C)C)cccc34)cc2)no1 | 3.83 µM (inactive) | 3.29 µM (inactive) | 6.12 µM (inactive) | 3.87 µM (inactive) | 4.79 µM (inactive) | 2.69 µM (inactive) | 9.25 µM (inactive) | 0.685 µM (active) | 10.7 µM (inactive) | 10.9 µM (inactive) | – | 3.01 µM (inactive) | 1.72 µM (inactive) | 35.1 µM (inactive) | 2.3 µM (inactive) | – | 1.35 µM (inactive) |
| COC(=O)C1[C@@H](C(=O)OC)C12C=Cc1ccccc1C=C2 (some centres not stated) | > 100 µM (inactive) | > 100 µM (inactive) | > 100 µM (inactive) | > 100 µM (inactive) | > 100 µM (inactive) | > 100 µM (inactive) | > 100 µM (inactive) | > 100 µM (inactive) | – | > 100 µM (inactive) | > 100 µM (inactive) | > 100 µM (inactive) | > 100 µM (inactive) | > 100 µM (inactive) | > 100 µM (inactive) | > 100 µM (inactive) | > 100 µM (inactive) |
| CC1C=C[C@H](Sc2ccccc2)CC[C@@]1(C)O (some centres not stated) | > 100 µM (inactive) | > 100 µM (inactive) | > 100 µM (inactive) | > 100 µM (inactive) | 97.3 µM (inactive) | 67.5 µM (inactive) | – | > 100 µM (inactive) | – | > 100 µM (inactive) | > 100 µM (inactive) | > 100 µM (inactive) | 89.9 µM (inactive) | > 100 µM (inactive) | > 100 µM (inactive) | 30.1 µM (inactive) | > 100 µM (inactive) |
